# From US20110160399A1, “HISTONE MODIFICATION INHIBITOR SPECIFIC TO TARGET GENE” (NIHON UNIVERSITY, priority 2008, published 2011)
# Tests used:
# [1] = test system: SW480 (human large bowel cancer cell line); experiment: Cell proliferation assay (WST-8) on SW480 cells; assay type: cell-based; details: SW480, 72 hours, FIG. 4
# Experimental: Next, the synthesized compounds were verified by WST-8 assay for their ability to suppress cancer cell proliferation.
# Cell lines of HeLa (human uterine cervical cancer cell line), LOVO, RKO and SW480 (each of which was a human large bowel cancer cell line) were each cultured at 37° C. under 5% carbon dioxide conditions using Dulbecco's modified Eagle's medium (DMEM, Nacalai Tesque, Inc., Japan) supplemented with 10% fetal bovine serum (FBS: JRH bioscience, USA), antibiotics (50 U/ml penicillin and 50 μg/ml streptomycin) and 1 mM sodium pyruvate. […]
# Each cell line seeded at 3×10^3 cells/well in a MICROTEST tissue culture plate (96 well, FALCON) was cultured at 37° C. under 5% carbon dioxide conditions for 24 hours, and then cultured in the presence of various concentrations of PI polyamide for an additional 72 hours. After completion of the culture, 10 μl of viable cell counting reagent SF (Nacalai Tesque, Inc., Japan) was added to each well and the absorbance at 450 nm was measured by ARVO EX (PerkinElmer). During the period from reagent addition until assay, incubation was continued at 37° C. in the presence of 5% CO2 until the absorbance reached about 1.2 to 2.0 in the control sample where only 50% DMSO was added to the cells.
# [2] = test system: p16 protein expression; experiment: Western blotting of p16 protein in HeLa cells; assay type: cell-based, human; details: 48 hours, various concentrations, α-tubulin internal standard, FIG. 7
# Experimental: After being cultured for 48 hours in the presence of various concentrations of polyamide, HeLa cells were harvested and lysed again in an extraction buffer containing 20 mM Tris-HCl (pH 7.5), 150 mM NaCl, 1 mM EDTA, 1% Nonidet P-40 and Complete Protease Inhibitor Cocktail Tablets (Roche), and then centrifuged at 13,500×g at 4° C. for 15 minutes. The resulting supernatants were supplemented with a sample buffer solution (2ME+, ×4) (Wako Pure Chemical Industries, Ltd., Japan) to give samples. These samples were developed on a 15% polyacrylamide gel, electrically transferred to a polyvinylidene difluoride membrane (Millipore Corporation, USA), and then blocked with 5% skimmed milk for the purpose of preventing non-specific binding. The primary antibodies used for target protein detection were purified anti-human p16INK4 monoclonal antibody (BD bioscience) for p16 and α-tubulin (TU-02) (SANTA CRUZ) for α-tubulin used as an internal standard. […] After antibody labeling, the membrane was developed with Immobilon western (MILLIPORE) and then detected by Las-4000 mini (Fuji Photo Film Co., Ltd., Japan). The area and intensity of each band were determined by Multigauge (Fuji Photo Film Co., Ltd., Japan) and quantified in comparison with a 50% DMSO-treated control, which was set to 100%.
# [3] = test system: LARP1 gene expression; experiment: Expression analysis of LARP1 gene by quantitative PCR in HEK293 cells; assay type: cell-based, human; details: 150 nM, one week, compared to esterified SAHA+p16 PIP or SAHA+non-targeting PIP, FIG. 11
# Experimental: HEK293 cells were used to analyze LARP1 gene expression. HEK293 cells are a cell line established by transformation of human embryonic kidney cells with the adenovirus E1 gene. The LARP1 gene includes, in its gene region, a sequence similar to the sequence of the regulatory region in the p16 gene recognized by SAHA+p16 PIP, as described above. More specifically, the expression analysis was accomplished as follows. HEK293 cells were cultured in DMEM growth medium containing 10% fetal calf serum (FCS). During culture, the medium was replaced every two days by a culture solution containing the synthesized compound (SAHA+p16 PIP, esterified SAHA+p16 PIP or SAHA+non-targeting PIP) at a final concentration of 150 nM, and cell culture was continued for one week in the medium containing the above synthesized compound. After one week, the cells were lysed with 1 ml of TRIzol and then mixed with 200 μl of chloroform, followed by centrifugation at 12000×g at 4° C. for 10 minutes. Then, the supernatant was mixed with an equal volume of isopropanol and centrifuged at 12000×g at 4° C. for 10 minutes. Then, the pellet was washed with a 70% ethanol solution and centrifuged at 5000×g for 5 minutes to remove the supernatant. […] The RNA (1 μg) was used as a template to synthesize cDNA, followed by quantitative PCR. […]
compound,measurement,setting,value
"CN(C)CCCNC(=O)CCNC(=O)c1cc(NC(=O)c2nc(NC(=O)c3nc(NC(=O)CCNC(=O)c4cc(NC(=O)c5nc(NC(=O)CCCNC(=O)c6cc(NC(=O)c7nc(NC(=O)CCNC(=O)c8cc(NC(=O)c9cc(NC(=O)c%10nc(NC(=O)CCNC(=O)CCNC(=O)c%11ccc(NC(=O)CCCCCCC(=O)NO)cc%11)cn%10C)cn9C)cn8C)cn7C)cn6C)cn5C)cn4C)cn3C)cn2C)cn1C [SAHA+p16 PIP, SAHA-ββImPyPyβImPyγImPyβImImPyβDp]",inhibition of SW480 cell proliferation,[1],inhibit proliferation
same,expression of p16 at the protein level,[2],enhanced the expression
same,expression of the LARP1 gene,[3],increased expression
